Measured values published in US20240091235A1, “USE AS SELECTIVE AGONIST OF MELANOCORTIN-4 RECEPTOR” (priority 2020, published 2024).
Counter-ions that a name gives are not always drawn.

Legend:
[1] = target: T1, melanocortin-4 receptor (MC4R) (Homo sapiens, UniProt P32245); assay: Luciferase assay (CRE-LUC), HEK MC4R-Luc cells; assay type: cell-based
T1 construct: expressed in transfected cells

[2] = target: T2, melanocortin-1 receptor (MC1R) (Homo sapiens, UniProt Q01726); assay: Luciferase assay (CRE-LUC), HEK MC1R-Luc cells; assay type: cell-based; details: luminescence relative to 10 μM NDP-α-MSH
T2 construct: expressed in transfected cells
Procedure: In order to measure the agonist ability for melanocortin-1 receptor (MC1R) and melanocortin-4 receptor (MC4R), a cell line that permanently expresses MC1R, MC4R and the luciferase gene (CRE-LUC) under the control of CRE (cAMP response element) was established.
After a mammalian cell expression vector (pCDNA3 (Neo)) (Invitrogen) containing the MC1R and MC4R genes was prepared, human embryonic kidney (HEK) cell lines were transformed by using Lipofectamine 2000 (Invitrogen) together with a vector (pCRE-Luc)(Stratagen) expressing a luciferase gene (CRE-LUC) under the control of a cAMP response element (CRE). […] Each well was treated with 50 μL of a Bright-Glo luciferase reagent (Promega) and left at room temperature for 15 minutes, and then the luminescence of each well was measured by using a luminometer (Victor).
HEK MC1R-Luc cells and HEK MC4R-Luc cells were added to each well of a 96-well luminometer cell culture plate (Costar) to a size of 2.5×10^4 cells in 100 μL of a culture medium and then incubated in a 37° C. incubator in the presence of 6% CO2 for 18 hours. […] Each well was treated with 50 μL of a Bright-Glo luciferase reagent (Promega) and left at room temperature for five minutes, and then the luminescence of each well was measured by using a luminometer (Victor). […] The measurements were measured using statistical software (Prizm).

[3] = mouse, in vivo
Procedure: With respect to skin pigmentation—which is an off-target effect of MC4R agonist, the distribution and accumulation of the drug were evaluated by measuring the drug concentration in the skin and plasma after repeated administration in a db/db mouse model lacking leptin receptor.

[4] = system: skin and skin hair pigmentation; assay: Skin pigmentation in repeated toxicity test in monkeys; assay type: in vivo; details: repeatedly administered for 2 weeks, FIG. 2
Procedure: In order to confirm the possibility of occurrence of skin pigmentation—which is an off-target effect of MC4R agonist, pigmentation patterns in the skin and skin hair were measured in a repeated toxicity test in monkeys, and the results are represented in FIG. 2.

MC4R [5] = target: T3, MC4R (Homo sapiens, UniProt P32245); assay: Binding affinity, membranes of HEK-293 cell lines expressing MC4R; design: expressed in transfected cells
Procedure: After the CHO-K1 cell line expressing human recombinant MC1R and the HEK-293 cell lines expressing MC4R were established, membranes were collected from each cell line. In a 96-well cell culture plate, the cell line membrane and 25 mM HEPES-KOH adsorption buffer (pH 7.0) containing the MCR agonist diluted at each step concentration were added, and the reaction was carried out. EC50 was calculated as a concentration that induces 50% of the maximum binding that can be induced by each agonist, and the results are represented in Table 2.
Target sequence in this assay (P32245 whole entry): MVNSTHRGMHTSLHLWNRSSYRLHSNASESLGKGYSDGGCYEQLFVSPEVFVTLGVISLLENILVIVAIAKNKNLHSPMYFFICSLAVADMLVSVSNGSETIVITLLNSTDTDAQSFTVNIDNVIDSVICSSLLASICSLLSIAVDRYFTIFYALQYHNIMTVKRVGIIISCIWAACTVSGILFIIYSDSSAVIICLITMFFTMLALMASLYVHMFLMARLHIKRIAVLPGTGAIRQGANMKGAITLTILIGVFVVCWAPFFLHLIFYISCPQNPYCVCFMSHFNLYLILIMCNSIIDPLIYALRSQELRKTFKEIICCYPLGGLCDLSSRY

MC1R [6] = target: T4, MC1R (Homo sapiens, UniProt Q01726); assay: Binding affinity, membranes of CHO-K1 cell line expressing human recombinant MC1R; design: expressed in transfected cells; host or cells: CHO-K1 (membranes); details: 25 mM HEPES-KOH buffer pH 7.0
Procedure: In a 96-well cell culture plate, the cell line membrane and 25 mM HEPES-KOH adsorption buffer (pH 7.0) containing the MCR agonist diluted at each step concentration were added, and the reaction was carried out.
Target sequence in this assay (Q01726 whole entry): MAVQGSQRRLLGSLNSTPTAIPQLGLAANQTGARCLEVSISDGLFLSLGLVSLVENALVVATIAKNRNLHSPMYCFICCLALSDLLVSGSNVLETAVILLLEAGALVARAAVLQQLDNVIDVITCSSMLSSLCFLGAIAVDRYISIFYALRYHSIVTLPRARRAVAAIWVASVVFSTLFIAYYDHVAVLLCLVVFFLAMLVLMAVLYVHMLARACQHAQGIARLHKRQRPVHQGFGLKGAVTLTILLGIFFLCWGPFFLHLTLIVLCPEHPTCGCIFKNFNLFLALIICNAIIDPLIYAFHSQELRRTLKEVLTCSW

MC4R [7] = target: T3, MC4R; assay: cAMP Hunter Gs-coupled cAMP assay (CHO-K1 cell line), MC4R; assay type: cell-based; design: expressed in transfected cells; host or cells: CHO-K1 (cAMP Hunter Gs-coupled cell line)
Procedure: (§1) After cAMP Hunter Gs-coupled cell lines (CHO-K1 cell line) in which each of MC1R and MC4R was overexpressed were established so that the increase in the cAMP level in cells due to agonist reaction was measurable, the cells were inoculated into each well of a white cell culture plate and incubated for 24 hours in a 37° C. incubator in the presence of 5% CO2. After the incubation, the medium was removed, and 15 μL of a 2:1 HBBS/10 mM HEPES:cAMP XS+Ab reagent was added. After 5 μL of the sample diluted 4 times with buffer was added, the vehicle concentration was set to 1%, and the MC4R agonist compound diluted at each step concentration was added, followed by reaction at 37° C. for 30 minutes. The activity (%) of each agonist compound is expressed as 100%×(average RLU value of sample−average RLU value of vehicle control)/(average RLU value of max control−average RLU value of vehicle control), and the value was analyzed by CBIS data analysis suite (ChemInnovation, CA).
Target sequence in this assay (P32245 whole entry): as the sequence (P32245 whole entry) above

MC1R [8] = target: T4, MC1R; assay: cAMP Hunter Gs-coupled cAMP assay (CHO-K1 cell line), MC1R; assay type: cell-based; design: expressed in transfected cells; host or cells: CHO-K1 (cAMP Hunter Gs-coupled cell line); details: 30 minutes at 37° C.
Procedure: as §1
Target sequence in this assay (Q01726 whole entry): as the sequence (Q01726 whole entry) above

MC4R [9] = target: T3, MC4R; assay: Pathhunter eXpress β-arrestin assay (U2OS cell line), MC4R; assay type: cell-based; design: expressed in transfected cells; host or cells: U2OS (Pathhunter eXpress β-arrestin cell line)
From the text: (§2) A Pathhunter eXpress β-arrestin cell line (U2OS cell line) in which Prolink (PK)-tagged MC1R and MC4R, and enzyme acceptor (EA)-tagged β-arrestin were expressed together was established. When the MCR-PK portion of this cell line is activated, β-arrestin-EA is mobilized, and enzyme acceptor (EA) and Prolink (PK), which are the β-galactosidase enzyme fragments, interact. The activated enzyme hydrolyzes the substrate by β-galactosidase activity to produce a chemiluminescent signal, so that the activity can be measured. After the Pathhunter eXpress β-arrestin cell line (U2OS cell line) was incubated, the cells were inoculated into each well of the cell culture plate and incubated for 48 hours in a 37° C. incubator in the presence of 5% CO2. After the incubation, 5 μL of the sample diluted 5 times with buffer was added, the vehicle concentration was set to 1%, and the MC4R agonist compound diluted at each step concentration was added, followed by reaction at 37° C. for 90 minutes. The activity (%) of each agonist compound is expressed as 100%×(average RLU value of sample−average RLU value of vehicle control)/(average maximum value of control ligand−average RLU value of vehicle control), and the value was analyzed by CBIS data analysis suite (ChemInnovation, CA).
Target sequence in this assay (P32245 whole entry): as the sequence (P32245 whole entry) above
Target sequence in this assay (P32121 whole entry partner): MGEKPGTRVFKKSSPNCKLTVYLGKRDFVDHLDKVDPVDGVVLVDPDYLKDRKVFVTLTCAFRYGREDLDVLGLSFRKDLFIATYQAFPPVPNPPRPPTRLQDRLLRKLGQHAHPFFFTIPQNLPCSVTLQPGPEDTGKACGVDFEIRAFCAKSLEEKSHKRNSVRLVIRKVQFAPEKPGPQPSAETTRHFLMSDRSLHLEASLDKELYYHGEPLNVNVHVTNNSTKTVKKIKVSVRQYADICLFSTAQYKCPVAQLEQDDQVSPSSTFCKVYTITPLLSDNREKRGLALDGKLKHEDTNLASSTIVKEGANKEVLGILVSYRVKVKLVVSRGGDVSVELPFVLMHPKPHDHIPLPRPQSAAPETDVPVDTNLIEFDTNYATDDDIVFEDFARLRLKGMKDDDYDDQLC

MC1R [10] = target: T4, MC1R; assay: Pathhunter eXpress β-arrestin assay (U2OS cell line), MC1R; assay type: cell-based; design: expressed in transfected cells; host or cells: U2OS (Pathhunter eXpress β-arrestin cell line); details: 90 minutes at 37° C.
From the text: as §2
Target sequence in this assay (Q01726 whole entry): as the sequence (Q01726 whole entry) above
Target sequence in this assay (P32121 whole entry partner): as the sequence (P32121 whole entry partner) above

skin pigmentation = details: reported, Clement et al., Nature Medicine, 2018; cited from earlier work
[11] = ratio of EC50 in MC1R to EC50 in MC4R

T1 sequence (P32245 whole entry): as the sequence (P32245 whole entry) above
T2 sequence (Q01726 whole entry): as the sequence (Q01726 whole entry) above

Row | EC50 ([1]; HEK MC4R-Luc cells, luminescence relative to 10 μM NDP-α-MSH) [nM] | Ratio MC1R/MC4R (Luciferase) [1, 11] | EC50 [2] [nM] | EC50 (MC4R [5]; HEK-293 membranes, 25 mM HEPES-KOH buffer pH 7.0) [nM] | Ratio MC1R/MC4R (Binding) (MC4R [5]; [11]) | EC50 (MC1R [6]) [nM] | EC50 (MC4R [7]; CHO-K1 cell line, 30 minutes at 37° C.) [nM] | Ratio MC1R/MC4R (cAMP) (MC4R [7]; [11]) | EC50 (MC1R [8]) [nM] | EC50 (MC4R [9]; U2OS cell line, 90 minutes at 37° C.) [nM] | Ratio MC1R/MC4R (β-Arrestin) (MC4R [9]; [11]) | EC50 (MC1R [10]) [nM] | Compound | Accumulation of drug in the skin [3] | Pigmentation on the skin and skin hair [4] | Skin pigmentation in clinical trials (skin pigmentation)
1 | 0.434 | 5.76 | 2.5 | 62 | 5.00 | 310 | 16.3 | 5.21 | 84.8 | 5.14 | 37.98 | 195 | CC(C)C(=O)N([C@H]1C[C@@H](C(=O)N2CCOCC2)N(C(=O)[C@@H]2CN(C(C)(C)C)C[C@H]2c2ccc(Cl)cc2)C1)[C@H]1CC[C@@H](C)CC1.Cl [Test Compound, N-((3S,5S)-1-((3S,4R)-1-(tert-butyl)-4-(4-chlorophenyl)pyrrolidine-3-carbonyl)-5-(morpholine-4-carbonyl)pyrrolidin-3-yl)-N-((1s,4R)-4-methylcyclohexyl)isobutyramide hydrochloride] | did not relatively accumulate in the skin | pigmentation did not appear on the skin and skin hair | –
2 | – | – | – | – | – | – | – | – | – | – | – | – | CC(=O)N[C@@H](CCCNC(=N)N)C(=O)N[C@H]1CSSC[C@@H](C(N)=O)NC(=O)[C@H](Cc2c[nH]c3ccccc23)NC(=O)[C@H](CCCNC(=N)N)NC(=O)[C@@H](Cc2ccccc2)NC(=O)[C@H](Cc2c[nH]cn2)NC(=O)[C@@H](C)NC1=O [setmelanotide, Ac-RC[dA]H[dF]RWC-NH2 (disulfide) (AcOH salt)] | – | – | show skin pigmentation
